From US20250302795A1, “SMALL MOLECULE COMPOUNDS WITH NEGATIVE REGULATORY EFFECTS ON Nrf2 SIGNALING [sequence] AND THEIR POTENTIAL APPLICATIONS” (Beijing Hebabiz Biotechnology Co., Inc., priority 2022, published 2025)

Columns and labels:
Type in all cases: in vivo, rat
[1] = test system: rats with non-alcoholic steatohepatitis induced by high-fat diet; assay: Liver indices, non-alcoholic steatohepatitis model induced by high-fat diet
Description: (§1) The normal control group was fed a standard diet for twelve weeks while the other groups were fed a high-fat diet consisting of 88% basal diet+10% lard+2% cholesterol for twelve weeks. After establishing the model, the drug groups received their respective treatments at a dosage of 10 ml/kg while the normal and model groups received an equal volume of 0.5% CMC-Na solution. The rats were provided with ad libitum access to water and food, while the animal chamber was maintained under controlled conditions of quietness, natural lighting, a temperature of 25±0.5° C., and a humidity level of 55±5%. The rats' body weights were measured once per week and recorded.
(3) Liver indices was determined by dividing the wet weight of the liver by the body weight of rats and multiplying by 100%, after liver tissue was isolated, washed with normal saline, dried using filter paper, and weighed following blood sampling from the abdominal aorta. (4) HE staining and oil red staining were performed on liver tissue samples obtained from the abdominal aorta of rats. The tissue was fixed in 10% neutral formalin, followed by embedding, slicing, dewaxing, staining, transparency treatment, and sealing using routine procedures. Microscopic examination was conducted to observe the pathological changes in rat liver tissues across different groups. Additionally, the NASH-CRN scoring system was employed to assess NAS scores. (5) Detection of Proteins Associated with Non-Alcoholic Steatohepatitis

[2] = test system: rats with nonalcoholic steatohepatitis induced by a high-fat diet and CCl4; assay: Serum biochemical indices, high-fat diet and CCl4 model; conditions: end of tenth week of administration, positive control group
Description: (§2) Starting from the seventh week, they received subcutaneous injections of a 30% CCl4 olive oil solution at a dosage of 0.2 ml/100 g behind their back twice per week for a total of four times. Once the model was successfully replicated, the corresponding drugs were administered orally (10 ml/kg) in each treatment group, and both the normal control group and the model group received equal volumes of a 0.5% CMC-Na solution once daily for ten consecutive weeks. Throughout the experimental period, the rats were provided with ad libitum access to food and water, while the animal chamber was maintained under controlled conditions of quietness, natural lighting, a temperature of 25±0.5° C., and a humidity level of 55±5%. The rats' body weights were measured once per week and recorded.
At the end of the tenth week of administration, all rats underwent a 16-hour fasting period following their final administration and were intraperitoneally injected with a 20% ulinastatin solution (10 ml/kg) for anesthesia. Subsequently, blood samples were collected from the abdominal aorta and allowed to stand for one hour, and then centrifuged at 4° C. for fifteen minutes at a speed of 3000 r/min. Finally, the upper serum was stored at −80° C. Following the instructions provided with the biochemical index detection kit, levels of HDL-C, LDL-C, NEFA, AST, ALT, UA, TC, TG, PCIII, IV-C LN and HA in rat serum were determined.
According to the kit instructions, the concentration of fasting plasma glucose (FPG) in serum was determined using colorimetry, while the concentration of fasting insulin (FINS) in serum was measured through radioimmunoassay.

[3] = Body weight of rats, high-fat diet + CCl4 non-alcoholic steatohepatitis model; conditions: positive control group, in g (unit assumed)
Description: as §2, with “The normal control group were fed a standard diet while the other groups were exclusively fed a high-fat diet consisting of 88% basal diet +10% lard +2% cholesterol for the initial six weeks. Starting” for “Starting”
The weight changes of rats in each group were compared by conducting weekly weigh-ins after the experiment.

[4] = test system: rats with non-alcoholic steatohepatitis induced by high-fat diet; assay: Serum biochemical indices, non-alcoholic steatohepatitis model induced by high-fat diet; conditions: end of 8th week of administration, positive control group
Description: as §1, with “After” for “The normal control group was fed a standard diet for twelve weeks while the other groups were fed a high-fat diet consisting of 88% basal diet+10% lard+2% cholesterol for twelve weeks. After”
At the end of the 8th week of administration, all rats were anesthetized with a 20% ulinastatin solution (10 ml/kg) via an intraperitoneal injection after the final administration. Subsequently, blood was collected from the abdominal aorta post-anesthesia. After standing for 1 hour, the blood was centrifuged at 4° C. and 3000 r/min for 15 minutes to obtain the upper serum fraction which was then stored at −80° C. Following the instructions provided by the biochemical index detection kit, levels of HDL-C, LDL-C, NEFA, AST, ALT, UA, TC, TG, FPG and FINS in rat serum were determined.

[5] = test system: rats with nonalcoholic steatohepatitis induced by a high-fat diet and CCl4; assay: Liver indices, non-alcoholic steatohepatitis model induced by high-fat diet and CCl4; conditions: positive control group
Description: as §2, with “The normal control group were fed a standard diet while the other groups were exclusively fed a high-fat diet consisting of 88% basal diet +10% lard +2% cholesterol for the initial six weeks. Starting” for “Starting”
After blood sampling from the abdominal aorta of rats, the liver tissue was isolated, rinsed with normal saline solution, dried using filter paper, weighed accurately, and subsequently calculated the Liver indices: Liver indices=wet liver weight/body weight×100%.

**Q.** For `COC(=O)c1cc(OC)c2c(c1-c1c(CO)cc(OC)c3c1OCO3)OCO2` [Bicyclol], which “liver indices versus model group (in words)” value ([1]; NR218 at high, medium and low doses, P<0.01 or P<0.05) is on record?
**A.** Its value is “significant decrease compared to the model group”.

**Q.** And the “Liver Indices” value ([1]; high-fat diet model, positive control group)?
**A.** Its value is 3.77 ± 1.17 %.

**Q.** And the HOMA-IR ([2]; FPG x FINS/22.5)?
**A.** Its HOMA-IR is 5.48.

**Q.** What about the ALT ([2]; serum) of the same compound?
**A.** Its ALT is 44.39 U/L.

**Q.** And the AST ([2]; serum)?
**A.** The AST was 66.96 U/L.

**Q.** And the HDL-C ([2]; serum)?
**A.** The HDL-C was 1.29 mmol/L.

**Q.** And the LDL-C ([2]; serum)?
**A.** The LDL-C was 0.90 mmol/L.

**Q.** And the NEFA ([2]; serum)?
**A.** Its NEFA is 0.77 mmol/L.

**Q.** And the TC ([2]; serum)?
**A.** The TC was 1.85 mmol/L.

**Q.** And the TG ([2]; serum)?
**A.** Its TG is 0.63 mmol/L.

**Q.** What about the UA ([2]; serum) of the same compound?
**A.** Its UA is 126 µmol/L.

**Q.** And the body weight ([3]; week 1)?
**A.** The body weight was 195.81 ± 5.12.

**Q.** What about the body weight ([3]; week 2) of the same compound?
**A.** Its body weight is 252.07 ± 9.62.

**Q.** And the body weight ([3]; week 3)?
**A.** The body weight was 293.51 ± 34.27.

**Q.** What about the body weight ([3]; week 4) of the same compound?
**A.** The body weight was 366.45 ± 19.21.

**Q.** And the body weight ([3]; week 5)?
**A.** The body weight was 404.78 ± 18.71.

**Q.** And the body weight ([3]; week 6)?
**A.** Its body weight is 438.13 ± 24.81.

**Q.** And the body weight ([3]; week 7)?
**A.** The body weight was 471.76 ± 26.05.

**Q.** And the body weight ([3]; week 8)?
**A.** The body weight was 493.73 ± 28.93.

**Q.** What about the body weight ([3]; week 9) of the same compound?
**A.** The body weight was 500.11 ± 35.71.

**Q.** And the body weight ([3]; week 10)?
**A.** The body weight was 516.75 ± 35.02.

**Q.** What about the body weight ([3]; week 11) of the same compound?
**A.** The body weight was 483.11 ± 32.67.

**Q.** And the body weight ([3]; week 12)?
**A.** The body weight was 486.89 ± 36.07.

**Q.** And the body weight ([3]; week 13)?
**A.** Its body weight is 508.69 ± 60.33.

**Q.** And the body weight ([3]; week 14)?
**A.** The body weight was 526.54 ± 51.97.

**Q.** What about the body weight ([3]; week 15) of the same compound?
**A.** Its body weight is 536.32 ± 44.50.

**Q.** And the body weight ([3]; week 16)?
**A.** The body weight was 559.17 ± 38.21.

**Q.** What about the body weight ([3]; week 17) of the same compound?
**A.** Its body weight is 573.81 ± 44.40.

**Q.** What about the body weight ([3]; week 18) of the same compound?
**A.** Its body weight is 581.09 ± 46.08.

**Q.** What about the HOMA-IR ([4]; FPG x FINS/22.5) of the same compound?
**A.** Its HOMA-IR is 1.04.

**Q.** What about the ALT ([4]; serum) of the same compound?
**A.** Its ALT is 547.14 U/L.

**Q.** And the AST ([4]; serum)?
**A.** Its AST is 19.65 U/L.

**Q.** And the HDL-C ([4]; serum)?
**A.** The HDL-C was 1.34 mmol/L.

**Q.** What about the LDL-C ([4]; serum) of the same compound?
**A.** The LDL-C was 0.91 mmol/L.

**Q.** What about the NEFA ([4]; serum) of the same compound?
**A.** Its NEFA is 0.92 mmol/L.

**Q.** What about the TC ([4]; serum) of the same compound?
**A.** Its TC is 2.76 mmol/L.

**Q.** What about the TG ([4]; serum) of the same compound?
**A.** The TG was 0.83 mmol/L.

**Q.** And the UA ([4]; serum)?
**A.** The UA was 81.3 µmol/L.

**Q.** What about the “Liver Indices” value [5] of the same compound?
**A.** The value was 3.48 ± 0.41 %.
